# Assays:
# in vivo [1] = details: aspen tree
# Protocol: The tree had not previously been treated with any pesticide. About 4 to 5 ml of a formulation containing 5% imidacloprid and 95% tetrahydrofurfuryl alcohol (THFA) was poured onto the soil around the base and then watered in.
# (§1) Leaves obtained from the treated and untreated trees 100 days after treatment were analyzed for imidacloprid by enzyme-linked immunosorbent assay (ELISA). Briefly, leaves were dried completely and leaf blade material was separated from stems and petioles. The leaf blade material was ground to a fine powder, and about 5 grams of the material placed in a vial. A measured amount of methanol was added so that the leaf material was covered and 1 to 2 ml of methanol was beyond the leaf material, for a total of 10 to 20 ml of methanol. The vials were mixed well at least twice a day for at least 48 hours. After at least 48 hours, 10 microliters of the liquid was transferred to a smaller vial, and 1.5 ml distilled water added, and the vials were mixed well. ELISA was performed using the Envirologix™ QuantiPlate Kit for Imidacloprid (EP 006).
# in vivo [2] = details: phylodendrons
# Protocol: as §1
# Five ml of a formulation of 5% imidacloprid and 95% THFA was applied to the soil of each of two 4-inch diameter pots of phylodendrons. An equal number of control plants received no insecticide treatment. All of the plants were watered and kept in the same area. On the tenth day after treatment, leaves from treated and control plants were collected and tested for imidacloprid by ELISA as described in Example 1.
structure (smiles),measurement,setting,value
O=[N+]([O-])NC1=NCCN1Cc1ccc(Cl)nc1 [imidacloprid],concentration at 100 days,in vivo [1],17000 ng/g
same,Time for absorption by the roots and translocation to the leaves,in vivo [2],≤ 10 days
same,concentration at 10 days,in vivo [2],72000 ng/g

# From patent publication US8664162B2, “Method for application of pesticides and plant growth regulators and nutrients to plants” (ArborSystems, priority 2009, dated 2014)
